Data on one compound can be found in patent US12509463B2, “JAK inhibitor and preparation method therefor” (FELICAMED BIOTECHNOLOGY CO., LTD., priority 2019, dated 2025).

One assay addresses T1, JAK1 (Homo sapiens, UniProt P23458).
T1 construct: purchased Thermo PV4774
Description: JAK1 enzymology experiment (HTRF KinEASE-TK). As to conditions: JAK1 enzyme activity, 10 uM ATP, 19.76 nM JAk1, 30 min at 25° C., HTRF 665/615; read-out: Relative IC50. It is filed as biochemical. As for the experimental part:
JAK1 is a protein tyrosine kinase, and purchased from Thermo (Cat #PV4774). ATP was purchased from Thermo […] was purchased from Selleck (Cat #55001), and HTRF KinEASE-TK kit was purchased from Cisbio (Cat #62TKOPEC).
HTRF®KinEASE™-TK was a universal method to measure activity of tyrosine kinase by a substrate and a universal detection system. The reaction was performed in a 384-well plate (Greiner, Cat #784075), and the total reaction system was 20 ul. The reaction system mainly included a 1× kinase buffer solution, 5 mM MgCl2, 0.625 mM EGTA, 0.06 uM SEB, 1 mM DTT, 0.01% Brij-35, 1 uM TK-Sub-biotin and 10 uM ATP. The compounds prepared in Examples 1-8 and the control compound Oclacitinib were continuously diluted by DMSO to 10 concentration points, and then 100 nl was transferred to a test plate. After 19.76 nM JAk1 was added, the reaction started, 30 min after reaction at 25° C., a detection reagent was added to terminate the reaction (0.25×TK Antibody, 62.5 nM Streptavidin-XL665). After standing for 60 min at room temperature, FRET signal was read out on a Spark 10M or an envision plate reader. (HTRF 665/615=665 nm signal value/615 nm signal value).
665/615 signal ratio was converted to percentage inhibition. […]

For another assay, the system named is Canine PBMC cells. Description: IL-2 and ConA induced proliferation of canine PBMC cells (flow cytometry, CD4+ population). Format: cell-based. As to conditions: Canis lupus familiaris, CFSE stained, IL-2 and concanavalin A, 120 h, MFI of CD4+ population, read-out: Cell IC50. As for the experimental part:
Recombinant canine IL-2 (Cys147Ser) protein was purchased from R&D (Cat #1815-CL-020/CF). Canine CD4 Alexa Fluor 647-conjugated antibody was purchased from R&D […] A from Canavalia ensiformis (Jack bean) was purchased from Sigma (Cat #C5275-5MG). Oclacitinib maleate was purchased from AbMole Bioscience (Cat #M5827). PBMC cells were purchased from AllCells (Cat #DPB-002).
Flow cytometry is a technology used for detecting and measuring physical and chemical characteristics of populations of cells or particles. Canine PBMC was collected and stained with CFSE, and then the cells (1×10*5 cells/well) were inoculated onto a 96-well plate and incubated for 1 h in a 5% CO2 incubator at 37° C. […] Afterwards, cells were collected and stained with canine CD4 Alexa Fluor 647-conjugated antibodies.
Samples containing cells were resuspended by a staining buffer and injected into a flow cytometry. […] When cells passed through laser beam, a detector detected the scattered light of the cells or particles. The front detector detected forward scatter (FS), multiple detectors placed on the side detected side scatter (SS); and a fluorescence detector detected fluorescence emitted by the stained cells or particles. […]
CD4^+ was circled from lymphocyte populations. MFI of the CD4^+ population was calculated. […]
In general terms: A flow cytometer gives signals particle by particle.

In assay [1] the test system is pruritus caused by atopic dermatitis. As to conditions: dogs, cited from earlier work.

One may read the IC50 as the concentration at which inhibition is half-maximal.

Molecules are shown by their SMILES.

T1 sequence (P23458 866-1154 limits assumed): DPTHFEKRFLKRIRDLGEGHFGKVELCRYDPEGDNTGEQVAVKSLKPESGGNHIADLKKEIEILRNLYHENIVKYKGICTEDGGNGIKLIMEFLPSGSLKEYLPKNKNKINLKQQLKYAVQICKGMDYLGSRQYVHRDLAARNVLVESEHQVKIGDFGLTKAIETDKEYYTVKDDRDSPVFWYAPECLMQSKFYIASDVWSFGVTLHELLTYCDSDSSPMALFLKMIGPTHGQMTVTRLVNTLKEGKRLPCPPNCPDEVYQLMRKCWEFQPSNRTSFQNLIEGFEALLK

On to `CNS(=O)(=O)C[C@H]1CC[C@H](N(C)c2ncnc3[nH]ccc23)CC1` [Oclacitinib], for which the IC50 at JAK1 was determined as 12.9 nM. Moreover, the IC50 in the assay on Canine PBMC cells stood at 447 nM. Moreover, the “laboratory animals with more than 50% pruritus reaction relieved” value in assay [1] (on the 7th day of treatment) is “exceeding 70%”. In assay [1] (oral 0.4-0.6 mg/kg twice a day), the “time to relieve itching” value is at most 24 h; the “treatment of pruritus caused by atopic dermatitis” value is “safe and effective”.
